The text below walks through data of PMC9056855 (RSC Advances, 2020).

Holding throughout (format): biochemical
Data set [1] deals with T1, CYP2C19 (Homo sapiens, UniProt P33261). Kind of data set: probe substrate turnover, UHPLC.
Data set [2] has as its target T2, CYP2B6 (Homo sapiens, UniProt P20813).
T2 sequence (P20813 1-491): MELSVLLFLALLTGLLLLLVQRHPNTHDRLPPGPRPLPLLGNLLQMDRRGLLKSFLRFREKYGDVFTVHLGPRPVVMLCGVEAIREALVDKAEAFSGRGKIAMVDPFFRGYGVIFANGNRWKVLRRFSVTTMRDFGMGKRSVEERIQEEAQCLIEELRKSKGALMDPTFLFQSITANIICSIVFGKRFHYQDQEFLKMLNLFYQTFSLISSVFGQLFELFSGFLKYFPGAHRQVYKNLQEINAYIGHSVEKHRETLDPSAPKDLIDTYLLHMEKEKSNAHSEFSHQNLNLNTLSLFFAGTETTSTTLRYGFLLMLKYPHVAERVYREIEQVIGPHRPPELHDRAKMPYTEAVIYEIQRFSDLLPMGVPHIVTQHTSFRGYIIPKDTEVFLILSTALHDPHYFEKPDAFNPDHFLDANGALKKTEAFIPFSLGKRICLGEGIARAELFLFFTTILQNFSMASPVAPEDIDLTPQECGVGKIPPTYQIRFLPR
The experiment in a line: probe substrate turnover, UHPLC.

In the next data set the target is T3, UGT1A1 (Homo sapiens, UniProt P22309).
T3 sequence (P22309 26-533): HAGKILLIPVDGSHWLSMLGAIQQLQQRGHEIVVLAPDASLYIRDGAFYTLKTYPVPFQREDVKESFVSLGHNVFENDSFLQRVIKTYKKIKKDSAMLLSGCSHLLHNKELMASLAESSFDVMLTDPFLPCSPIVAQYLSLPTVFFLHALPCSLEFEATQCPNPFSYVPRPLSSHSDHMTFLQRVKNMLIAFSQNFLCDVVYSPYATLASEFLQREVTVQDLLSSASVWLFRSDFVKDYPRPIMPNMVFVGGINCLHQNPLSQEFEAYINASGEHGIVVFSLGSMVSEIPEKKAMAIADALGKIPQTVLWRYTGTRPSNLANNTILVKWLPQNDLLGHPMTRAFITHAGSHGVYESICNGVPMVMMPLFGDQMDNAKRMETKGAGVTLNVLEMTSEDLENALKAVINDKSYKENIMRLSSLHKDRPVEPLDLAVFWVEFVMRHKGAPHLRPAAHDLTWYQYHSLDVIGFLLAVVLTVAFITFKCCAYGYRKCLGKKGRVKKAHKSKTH
Kind of data set: probe substrate turnover, UHPLC.

The next data set addresses T4, CYP2C8 (Homo sapiens, UniProt P10632).
T4 sequence (P10632 1-490): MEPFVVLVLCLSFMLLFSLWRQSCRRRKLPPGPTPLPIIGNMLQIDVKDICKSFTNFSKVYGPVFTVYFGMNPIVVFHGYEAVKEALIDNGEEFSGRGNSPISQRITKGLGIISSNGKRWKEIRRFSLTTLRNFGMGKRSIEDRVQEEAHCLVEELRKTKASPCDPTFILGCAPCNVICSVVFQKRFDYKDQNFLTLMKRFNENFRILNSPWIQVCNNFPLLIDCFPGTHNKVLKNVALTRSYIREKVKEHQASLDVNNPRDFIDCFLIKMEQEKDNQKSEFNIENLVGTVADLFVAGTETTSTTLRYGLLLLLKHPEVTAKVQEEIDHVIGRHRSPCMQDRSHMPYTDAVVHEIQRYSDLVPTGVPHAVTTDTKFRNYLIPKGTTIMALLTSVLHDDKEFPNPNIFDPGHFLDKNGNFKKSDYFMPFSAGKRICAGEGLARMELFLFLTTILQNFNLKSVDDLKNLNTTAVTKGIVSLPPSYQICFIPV
Kind of data set: probe substrate turnover, UHPLC.

Data set [3] deals with T5, UGT1A9 (Homo sapiens, UniProt O60656).
T5 sequence (O60656 26-530): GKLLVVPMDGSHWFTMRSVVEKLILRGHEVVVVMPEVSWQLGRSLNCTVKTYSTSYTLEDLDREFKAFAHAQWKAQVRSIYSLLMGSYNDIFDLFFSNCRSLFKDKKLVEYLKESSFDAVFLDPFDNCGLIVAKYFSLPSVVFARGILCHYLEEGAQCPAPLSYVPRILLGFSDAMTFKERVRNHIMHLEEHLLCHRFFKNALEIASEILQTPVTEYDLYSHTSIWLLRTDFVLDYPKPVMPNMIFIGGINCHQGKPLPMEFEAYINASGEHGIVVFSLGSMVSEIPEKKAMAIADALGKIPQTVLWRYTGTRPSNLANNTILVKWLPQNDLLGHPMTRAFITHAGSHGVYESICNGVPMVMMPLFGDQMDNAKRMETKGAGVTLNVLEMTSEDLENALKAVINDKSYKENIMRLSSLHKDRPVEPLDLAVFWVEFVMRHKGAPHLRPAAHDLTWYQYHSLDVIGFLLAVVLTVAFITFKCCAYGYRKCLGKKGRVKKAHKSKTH
Kind of data set: probe substrate turnover, UHPLC.

Data set [4] has as its target T6, UGT2B7 (Homo sapiens, UniProt P16662).
T6 sequence (P16662 24-529): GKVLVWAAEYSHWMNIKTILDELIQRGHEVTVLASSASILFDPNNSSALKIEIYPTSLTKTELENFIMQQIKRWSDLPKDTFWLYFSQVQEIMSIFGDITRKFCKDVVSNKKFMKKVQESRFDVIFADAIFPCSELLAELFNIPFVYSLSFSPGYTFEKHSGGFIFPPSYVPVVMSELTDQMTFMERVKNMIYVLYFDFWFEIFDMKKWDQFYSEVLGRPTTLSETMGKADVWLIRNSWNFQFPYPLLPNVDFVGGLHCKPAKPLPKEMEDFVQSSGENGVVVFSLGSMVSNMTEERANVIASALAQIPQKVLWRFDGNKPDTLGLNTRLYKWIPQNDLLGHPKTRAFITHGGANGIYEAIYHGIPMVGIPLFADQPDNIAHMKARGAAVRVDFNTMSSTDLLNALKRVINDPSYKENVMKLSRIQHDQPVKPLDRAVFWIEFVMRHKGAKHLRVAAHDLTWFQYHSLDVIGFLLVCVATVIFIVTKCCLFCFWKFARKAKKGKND
Kind of data set: probe substrate turnover, UHPLC.

Data set [5] addresses T2, CYP2B6. Kind of data set: inhibition kinetics, nonlinear fit, Dixon plot, UHPLC.
In the next data set the target is CYP2E1 (Homo sapiens, UniProt P05181). The experiment in a line: probe substrate turnover, UHPLC.
CYP2E1, sequence (P05181 whole entry): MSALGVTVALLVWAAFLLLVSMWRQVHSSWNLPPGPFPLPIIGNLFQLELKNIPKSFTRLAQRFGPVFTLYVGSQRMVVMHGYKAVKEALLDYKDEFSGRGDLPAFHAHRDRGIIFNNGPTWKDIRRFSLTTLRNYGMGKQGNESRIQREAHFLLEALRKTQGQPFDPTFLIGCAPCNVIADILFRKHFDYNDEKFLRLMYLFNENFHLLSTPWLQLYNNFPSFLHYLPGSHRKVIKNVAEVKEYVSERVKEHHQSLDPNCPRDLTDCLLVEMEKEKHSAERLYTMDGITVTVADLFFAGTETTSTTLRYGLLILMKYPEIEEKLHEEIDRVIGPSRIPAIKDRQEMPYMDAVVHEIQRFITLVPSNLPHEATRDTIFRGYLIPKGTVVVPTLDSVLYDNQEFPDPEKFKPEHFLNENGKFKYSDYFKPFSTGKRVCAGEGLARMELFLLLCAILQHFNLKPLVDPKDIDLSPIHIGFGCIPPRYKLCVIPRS
A further data set has as its target CYP3A4 (Homo sapiens, UniProt P08684). The experiment in a line: probe substrate turnover, UHPLC.
The target in data set [6] is T7, CYP2C9 (Homo sapiens, UniProt P11712). Kind of data set: probe substrate turnover, UHPLC.
T7 sequence (P11712 whole entry): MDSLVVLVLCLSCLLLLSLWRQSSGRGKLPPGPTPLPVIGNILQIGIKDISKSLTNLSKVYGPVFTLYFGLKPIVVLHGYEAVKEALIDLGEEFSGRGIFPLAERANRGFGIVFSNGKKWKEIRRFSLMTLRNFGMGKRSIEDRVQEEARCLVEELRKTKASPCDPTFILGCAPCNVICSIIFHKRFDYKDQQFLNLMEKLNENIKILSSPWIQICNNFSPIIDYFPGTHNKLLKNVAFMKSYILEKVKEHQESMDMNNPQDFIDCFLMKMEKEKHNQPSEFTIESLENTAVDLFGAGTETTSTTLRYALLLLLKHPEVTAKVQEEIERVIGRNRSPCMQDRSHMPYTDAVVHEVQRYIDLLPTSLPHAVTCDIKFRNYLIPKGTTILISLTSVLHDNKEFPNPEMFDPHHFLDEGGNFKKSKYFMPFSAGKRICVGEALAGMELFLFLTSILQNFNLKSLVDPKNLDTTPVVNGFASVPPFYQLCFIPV
Data set [7] addresses T7, CYP2C9. The experiment in a line: inhibition kinetics, nonlinear fit, Dixon plot, UHPLC.
In the next data set the target is T8, CYP1A2 (Homo sapiens, UniProt P05177).
T8 sequence (P05177 2-516): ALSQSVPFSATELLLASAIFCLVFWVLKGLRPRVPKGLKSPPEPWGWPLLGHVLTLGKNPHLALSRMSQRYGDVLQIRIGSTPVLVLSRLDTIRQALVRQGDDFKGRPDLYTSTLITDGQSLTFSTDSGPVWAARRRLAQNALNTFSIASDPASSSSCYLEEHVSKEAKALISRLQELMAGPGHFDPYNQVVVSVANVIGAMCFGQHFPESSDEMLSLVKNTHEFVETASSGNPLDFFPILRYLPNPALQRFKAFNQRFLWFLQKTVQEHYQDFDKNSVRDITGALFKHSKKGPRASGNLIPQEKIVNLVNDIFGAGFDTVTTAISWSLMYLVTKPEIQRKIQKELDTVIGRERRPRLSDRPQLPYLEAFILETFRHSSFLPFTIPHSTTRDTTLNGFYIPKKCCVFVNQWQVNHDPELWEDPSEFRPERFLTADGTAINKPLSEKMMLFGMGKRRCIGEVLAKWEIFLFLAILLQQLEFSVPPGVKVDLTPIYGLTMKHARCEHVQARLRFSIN
Kind of data set: probe substrate turnover, UHPLC.

In data set [8] the target is T5, UGT1A9. Kind of data set: inhibition kinetics, nonlinear fit, Dixon plot, UHPLC.
In data set [9] the target is T1, CYP2C19. The description is as above.
The target in data set [10] is T6, UGT2B7. The description is as above.

T1 sequence (P33261 whole entry): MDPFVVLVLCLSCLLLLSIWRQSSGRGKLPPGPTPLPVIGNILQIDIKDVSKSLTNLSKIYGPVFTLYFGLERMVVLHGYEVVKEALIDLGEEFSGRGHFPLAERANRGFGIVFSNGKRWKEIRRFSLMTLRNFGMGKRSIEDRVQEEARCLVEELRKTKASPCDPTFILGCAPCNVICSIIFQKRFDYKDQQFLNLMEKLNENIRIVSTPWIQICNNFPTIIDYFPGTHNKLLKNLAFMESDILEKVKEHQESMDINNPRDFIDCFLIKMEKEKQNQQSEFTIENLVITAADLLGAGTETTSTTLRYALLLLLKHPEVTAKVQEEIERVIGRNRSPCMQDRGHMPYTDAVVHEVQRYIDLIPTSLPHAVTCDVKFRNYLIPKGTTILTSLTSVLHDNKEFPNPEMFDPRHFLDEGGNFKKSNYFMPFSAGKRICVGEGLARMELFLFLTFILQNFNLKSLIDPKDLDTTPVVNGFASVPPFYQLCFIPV
CYP3A4, sequence (P08684 2-503): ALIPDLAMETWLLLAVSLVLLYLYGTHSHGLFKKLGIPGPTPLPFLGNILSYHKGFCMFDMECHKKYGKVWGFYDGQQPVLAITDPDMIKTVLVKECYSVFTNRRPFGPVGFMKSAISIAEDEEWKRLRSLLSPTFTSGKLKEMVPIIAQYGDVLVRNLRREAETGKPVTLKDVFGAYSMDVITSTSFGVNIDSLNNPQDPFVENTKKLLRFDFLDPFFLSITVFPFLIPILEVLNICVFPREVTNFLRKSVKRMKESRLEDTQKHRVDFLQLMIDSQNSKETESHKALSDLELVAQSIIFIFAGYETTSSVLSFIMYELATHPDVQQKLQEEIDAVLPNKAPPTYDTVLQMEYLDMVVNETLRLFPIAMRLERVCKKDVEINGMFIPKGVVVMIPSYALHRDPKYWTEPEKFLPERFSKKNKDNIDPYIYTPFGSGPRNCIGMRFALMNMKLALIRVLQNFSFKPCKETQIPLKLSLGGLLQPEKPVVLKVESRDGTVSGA

On to `COc1cc2c(cc1CC=C(C)C)C(=O)C[C@@H](c1ccc(O)cc1)O2` [bavachinin], for which the IC50 was found to be 1380 ± 530 nM at CYP2C19 [1]; 1680 ± 630 nM against CYP2B6 [2]; 20700 ± 10600 nM against UGT1A1; 2340 ± 610 nM against UGT1A9 [3]; 2530 ± 620 nM against UGT2B7 [4]; 280 ± 70 nM at CYP2C9 [6]. Also, the “% residual activity at 100 μM” value is recorded as 21.5% at CYP2C8, 51.5% at CYP2E1, 24.7% on CYP3A4 and 91.5% on CYP1A2. In addition, the Ki at CYP2B6 [5] worked out at 1510 ± 120 nM; on CYP2C9 [7] it was 190 ± 30 nM; on UGT1A9 [8] it was 370 ± 40 nM; on CYP2C19 [9], 1860 ± 160 nM; on UGT2B7 [10], 1130 ± 120 nM.

For orientation: IC50 means the point on the concentration scale where inhibition reaches its midpoint. Higher therefore signals weaker potency in that assay. A word on the Ki: it is a measure of affinity in units of concentration, obtained from inhibition or displacement. The low end stands for higher affinity, the high end for lower affinity.
